In patent publication US20130109572A1, “HERBICIDAL COMPOSITIONS AND METHODS OF USE” (The Board of Trustees of the University of Alabama, priority 2010, published 2013):

Legend:
rat = details: cited from earlier work
[1] = tested on: white mustard (Sinapis alba L.); assay: Growth chamber spray test, fresh mass of white mustard (Mecoprop ionic liquids); type: in vivo; details: 0.001 M spray in water/ethanol (1:2), 200 L/ha, 2 weeks after application; for Reduction of fresh mass (%): vs unsprayed control
Experimental: The research was conducted under controlled environmental conditions in a dedicated growth chamber. The test plant was white mustard (Sinapis alba L.). Seeds were sown into soil-filled containers equal to the depth of 1 cm. After producing first leave, only 5 plants were allowed to stay in each pot. After producing the 3rd leaf, the plants were sprayed with the ionic liquids studied using a Tee Jet 1102 sprayer, the sprayer moving above the plants at a constant speed of 3.1 m/s. The spray distance from the tips of the plant was 40 cm, the pressure of liquid in sprayer was 0.2 MPa, and a liquid in the expenditure per 1 ha was 200 L.
Examples of the ionic liquids described herein were dissolved in a solution of water and ethanol (1:2) in an amount corresponding to a concentration of 0.001 mol/L, or 0.533 g/L [DDA][MCPP-P], 0.520 g/L [BA][MCPP-P], and 0.546 g/L [DOM] [MCPP-P]. As a comparison, a commercial product containing 600 g of the herbicide Mecoprop-P in 1 L was used. After spraying the plants, the pots were placed back in a growth chamber at a temperature of 20° C. (±2° C.) and humidity of 50%. The illumination time was 16 hours per day.
After a period of 2 weeks, the plants were cut to the soil level and weighed (0.1 g accuracy). A study was carried out in 4 replications in a completely randomized setup. The reduction of plant fresh weight as compared to control (no sprayed plants) was measured.

[2] = tested on: common poppy (Papaver rhoeas); assay: Growth chamber spray test, fresh weight reduction (Glyphosate ionic liquids); type: in vivo; details: 0.01 mol/L in water; 2 WAT
Experimental: Experiment in growth chamber: Temperature—20° C., humidity—60%, photoperiod (day/night hours)—16/8. The research was conducted under controlled environmental conditions in a dedicated growth chamber. The test plant was common poppy (Papaver rhoeas). The seeds were sown into soil-filled containers equal to the depth of 0.1 cm. After producing leaves, only 1 plant was allowed to stay in each pot. After producing the rosette, the plants were sprayed with the ionic liquids using a sprayer with Tee Jet 1102 nozzles. The sprayer was moving above the plants at a constant speed of 3.1 m/s. The spray distance from the tips of the plant was 40 cm, the pressure of liquid in sprayer was 0.2 MPa, and the liquid in the expenditure per 1 ha was 200 L.
The ionic liquids were dissolved in water in an amount corresponding to a concentration of 0.01 mol/L or 4.94 g/L [DDA][Glyphosate], 4.88 g/L [BA][Glyphosate]. As a comparison, a commercial product ROUNDUP™ containing 360 g of Glyphosate in 1 L was used. After spraying the plants, the pots were placed back in a growth chamber at a temperature of 20° C. (±2° C.) and humidity of 60%. The illumination time was 16 hours per day.
After a period of 2 weeks, the plants were cut right to the soil level and weighed (0.1 g accuracy). Fresh weight was used as the effect parameter. […]

[3] = tested on: common lambsquarters (Chenopodium album); assay: Field test, visual effectiveness of weed eradication; type: in vivo; details: field plots, 4 WAT, mean estimate, solutions of 0.01 and 0.02 mol/dm^3, 100% = complete destruction
Experimental: (§1) Field test. The research was conducted in the Field Experimental Station of the Institute of Plant Protection in Winna Gora on the plots of dimensions 1.5 m×5 m. The test plants were common lambsquarters (Chenopodium album) and cornflower (Centaurea cyanus). The investigated ion pairs were alkyltrimethylammonium 3,6-dichloro-2-methoxybenzoate ([ATMA][Dicamba]) and didecyldimethylammonium 3,6-dichloro-2-methoxybenzoate ([DDA][Dicamba]).
(§2) Solutions of investigated ion pairs were prepared as follows: alkyltrimethylammonium 3,6-dichloro-2-methoxybenzoate [ATMA][Dicamba] and didecyldimethylammonium 3,6-dichloro-2-methoxybenzoate [DDA][Dicamba] were dissolved in a mixture of water and ethanol (1:1) in an amount corresponding to a concentration of 0.01 and 0.02 mol/dm^3. […] As controls, objects with no treatment were used and sprayed only with a solution of water and ethanol (1:1).
(§3) The procedures were performed using a sprayer equipped with a flat stream nozzles type Tee Jet 110 03 XR, with a steady pressure of 0.2 MPa and the expense of the liquid in use in 200 L per 1 hectare. During the procedure, the following weeds were at following developmental phases: common lambsquarters—from 4 to 10 leaves; and cornflower—a fully-formed rosette.
(§4) The effectiveness of weed eradication was evaluated visually by comparing the state of weeds on each plot treated with [DDA][Dicamba] and control solution.

[4] = tested on: cornflower (Centaurea cyanus); assay: as above; type: in vivo; details: field plots, 4 WAT, mean estimate, solutions of 0.01 and 0.02 mol/dm^3, 100% = complete destruction
Experimental: as §1, §2, §3, §4

[5] = tested on: common lambsquarters (Chenopodium album); assay: Growth chamber spray test, fresh weight reduction (Dicamba ionic liquid); type: in vivo; details: 2 WAT
[6] = tested on: white mustard (Sinapis alba); assay: as above; type: in vivo; details: for Fresh weight reduction (%) Sinapis alba: 2 WAT
[7] = 0.001 mole/L in water/DMSO (2:1)
[8] = 0.002 mole/L in water/DMSO (2:1)
[9] = 0.004 mole/L in water/DMSO (2:1)

Q: With `O=C(O)COc1ccc(Cl)cc1Cl` [Example 2.4-D, 2,4-dichlorophenoxyacetic acid] as the molecule, how does the “rat LD50” value (rat) read?
A: 639 to 764 mg/kg

Q: Which “rat LD50” value (rat) does the source give for `Cc1cc(Cl)ccc1OCC(=O)O` [MCPA, 4-chloro-2-methylphenoxyacetic acid] here?
A: 962 to 1470 mg/kg

Q: With “Benzalkonium (±)-2-(4-chloro-2-methylphenoxy)propionate [[BA][MCPP]]” as the molecule, how does the “Fresh mass of white mustard” value [1] read?
A: 5.13 g

Q: And the “Reduction of fresh mass (%)” value [1]?
A: 57.8%

Q: For “Benzalkonium Glyphosate [[BA][Glyphosate]]”, which “Fresh weight reduction of Papaver rhoeas (%)” value [2] is on record?
A: 84.0%

Q: For “Didecyldimethylammonium 3,6-dichloro-2-methoxybenzoate [[DDA][Dicamba]]”, which “Effectiveness of Weed Eradication (%) Chenopodium album” value [3] is on record?
A: 92%

Q: And the “Effectiveness of Weed Eradication (%) Centaurea cyanus” value [4]?
A: 95%

Q: And the “Fresh weight reduction (%) Chenopodium album” value [5, 7]?
A: 16.7%

Q: And the “Fresh weight reduction (%) Chenopodium album” value [5, 8]?
A: 41.7%

Q: And the “Fresh weight reduction (%) Chenopodium album” value [5, 9]?
A: 45.7%

Q: What about the “Fresh weight reduction (%) Sinapis alba” value [6, 7] of the same molecule?
A: 6.8%

Q: What about the “Fresh weight reduction (%) Sinapis alba” value [6, 8] of the same molecule?
A: 18.5%

Q: What about the “Fresh weight reduction (%) Sinapis alba” value [6, 9] of the same molecule?
A: 27.1%

Q: And the “Effect on the weight of Sinapis alba compared with neutral Dicamba” value ([6]; growth chamber, preliminary comparison)?
A: substantially more active than neutral Dicamba

Q: Which results are given for “Didecyldimethylammonium (+)-(R)-2-(4-chloro-2-methylphenoxy)propionate [[DDA][MCPP-P]]”?
A: Fresh mass of white mustard [1]: 4.78 g; Reduction of fresh mass (%) [1]: 60.7%

Q: For “Didecyldimethylammonium Glyphosate [[DDA][Glyphosate]]”, which “Fresh weight reduction of Papaver rhoeas (%)” value [2] is on record?
A: 78.3%

Q: What does the source list for “Domiphen (+)-(R)-2-(4-chloro-2-methylphenoxy)propionate [[DOM][MCPP-P]]”?
A: Fresh mass of white mustard [1]: 4.08 g; Reduction of fresh mass (%) [1]: 66.5%
